The values below come from patent US20230131501A1, “THERAPEUTIC USES OF INHIBITORS OF THE RNA-BINDING PROTEIN HuR” (University of Kansas, priority 2020, published 2023).

Like-named read-outs stand apart in the source and are kept apart here. {Fluorescein} = fluorescein label Bounds are passed on as bounds.

The target in series [1] is T1, HuR protein interaction with the ARE site of Msi1 mRNA (HuR-Msi1^ARE) (Homo sapiens, UniProt Q15717).
T1 construct: full-length human HuR protein was produced by the KU COBRE-PSF Protein Purification Group; made in house
T1 sequence (Q15717 whole entry): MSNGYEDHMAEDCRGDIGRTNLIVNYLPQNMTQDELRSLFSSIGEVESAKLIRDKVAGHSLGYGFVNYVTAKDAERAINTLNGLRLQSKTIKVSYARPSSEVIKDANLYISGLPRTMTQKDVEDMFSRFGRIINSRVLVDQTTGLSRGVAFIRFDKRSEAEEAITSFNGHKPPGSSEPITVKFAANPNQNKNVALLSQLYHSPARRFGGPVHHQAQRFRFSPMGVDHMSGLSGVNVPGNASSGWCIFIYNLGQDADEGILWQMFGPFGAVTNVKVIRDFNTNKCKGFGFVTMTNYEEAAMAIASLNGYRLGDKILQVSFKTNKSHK
Put plainly: Fluorescence polarization (FP) assay, inhibition of HuR-Msi1 ARE interaction. It is filed as binding. Particulars: full-length human HuR, read-out: Ki via FP assay. The text has this:
(§1) A fluorescence polarization (FP)-based binding assay was utilized to assess the inhibition of HuR protein interaction with the ARE site of Msi1 mRNA (“HuR-Msi1^ARE”) by compounds of interest. Briefly, full-length human HuR protein was produced by the KU COBRE-PSF Protein Purification Group and Bcl2, Msi1 and XIAP mRNA sequences (16 nt) were designed based on literature precedent^23,24,31,32. Fluorescein labeled RNAs were purchased from Dharmacon with the following sequences: Msi1 RNA: 5′-GCUUUUAUUUAUUUUG-3′-fluorescein; Bcl-2 RNA: 5′-AAAAGAUUUAUUUAUU-3′-fluorescein; XIAP RNA: 5′-UAGUUAUUUUUA UGUC-3′-fluorescein, and a 16-nt degenerative RNA with 3′-fluorescein label was used as a negative control.
For orientation: Polarisation of emitted light reports the rotation of a fluorescent probe.

For the next series, the system named is HCT116 β/w. Nature of the series: Cytotoxicity assay (WST-8). Type of series: cell-based. The note with it: Homo sapiens, HCT-116, 96 h incubation. How it is done:
(§2) Cells were seeded in 96-well culture plates (5,000 cells/well) and treated with titrated compounds in triplicate. After 96 h incubation, cell growth medium was removed and proliferation reagent WST-8 (Sigma) was added to each well and incubated at 37° C. for 1-3 h. Absorbance was then measured with a plate reader at 450 nm with correction at 650 nm. The results were expressed as the percentage of absorbance of treated wells versus that of vehicle control.

Another series has as its system MIAPaCa-2. Put plainly: Cytotoxicity assay (WST-8). Type of series: cell-based. Particulars: Homo sapiens, MIA PaCa-2, 96 h incubation. The procedure:
as §2

In the next series the test system is MDA-MB-231. Put plainly: Cytotoxicity assay (WST-8). It is filed as cell-based. The note with it: Homo sapiens, read-out: Cytotoxicity (IC50, μM) MDA-MB-231. The procedure:
as §2, with “The cytotoxicity of the tested compounds in several cancer cell lines (HCT116 β/w, MIAPaCa-2, and MDA-MB-231) was determined by a cytotoxicity assay, where the results are provided in Table 1. Cells” for “Cells”, “control. IC50, the drug concentration causing 50% growth inhibition, was calculated via sigmoid curve fitting using GraphPad Prism 5.0. […]” for “control.”
A general note: Tetrazolium assays rely on reduction of a dye to a coloured formazan, in cell work by metabolically active cells.

The target of series [2] is T2, full-length human HuR protein (Homo sapiens, UniProt Q15717).
T2 construct: full-length human HuR protein was produced by the KU COBRE-PSF Protein Purification Group; made in house
T2 sequence (Q15717 whole entry): as above
Nature of the series: FP-based binding of fluorescein-labeled RNAs to HuR. Particulars: 16 nt RNA oligo, FITC-RNA 2 nM; read-out: Kd of HuR binding with fluorescein-labeled target RNA. The procedure: FIG. 3 provides the results of a fluorescence polarization (FP)-based binding assay, illustrating that full length HuR binds to FITC-Bcl-2, Msi1, and XIAP RNA but not to scrambled oligo-FITC, according to the working examples. The concentration of FITC-RNA used in the assay is 2 nM.
as §1

In series [3] the test system is docetaxel-resistant MDA-MB-231 cell line (231-TR). Put plainly: Cytotoxicity assay, docetaxel-resistant cells. Particulars: 231-TR vs MDA-MB-231. Type of series: cell-based. The procedure:
(§3) To further mimic clinical conditions and assess overcoming acquired chemo-resistance via compounds of the present technology, docetaxel-resistant and doxorubicin-resistant MDA-MB-231 cells were generated by continuous exposure of cells to increasing concentrations of docetaxel (TXT) or doxorubicin (DXR). Cytotoxicity assays were then performed to assess the chemo-resistance of the produced cell lines as well as assess the sensitivity of such chemo-resistant cell lines to compounds of the present technology.
(§4) Cytotoxicity assays were then performed utilizing concentrations of KH-3 that were below the lethal threshold for the compound (a “sub-lethal concentration”) in combination with docetaxel or doxorubicin to determine whether compounds of the present technology may sensitize cancer cell lines (including chemo-resistance cancer cell lines) to chemotherapy. FIGS. 11A-11B illustrate that sub-lethal concentrations of KH-3 sensitizes both MDA-MB-231 cells and docetaxel-resistant 231-TR cells to docetaxel treatment (FIGS. 11A-11B), and FIGS. 11C-D illustrate that sub-lethal concentrations of KH-3 sensitizes both MDA-MB-231 cells and doxorubicin-resistant 231-DR cells to doxorubicin treatment (FIGS. 11C-11D).

The subject of series [4] is Musashi 2 (Msi2) mRNA in PC3 cells. Nature of the series: mRNA level of HuR target after chemotherapy. Type of series: cell-based. The text has this:
FIGS. 1A-1F provide the results of studies illustrating RNA-binding protein Hu antigen R (HuR) is involved in chemo/radiation-induced tumor response, according to the working examples. […] HuR knock-down by siRNA sensitized cancer cells to X-ray radiation, with an enhancement ratio (ER) of 1.5 versus the negative control (NC) siRNA (FIG. 1F).

The test system of series [5] is HuR target mRNAs (Bcl-2, XIAP, Msi1, HuR) in HCT-116 β/w cells. Put plainly: mRNA stability by qRT-PCR after co-treatment with Actinomycin D. It is filed as cell-based. On the set-up: dose or concentration left out as unconfirmed. How it is done: HuR target mRNA levels were measured by qRT-PCR.
(§5) As HuR promotes stability of its target mRNAs, it is expected that HuR-inhibitors will block HuR function and shorten the half-life (t1/2) of target mRNAs. mRNA stability was determined via quantitative real-time PCR (qRT-PCR) after co-treatment of compounds of the present technology and Actinomycin D (a transcription inhibitor). […] Because HuR also increases the translation of target mRNAs, the effect of compounds of the present technology was tested on protein levels of HuR targets by Western blot analysis.
A general note: Quantitative PCR measures a nucleic acid by following its amplification.

The subject of series [6] is protein levels of HuR targets in HCT-116 β/w cells. Put plainly: Western blot of HuR targets. It is filed as cell-based. The procedure: as §5
The test system of series [7] is protein levels of HuR targets in MDA-MB-231 cells. Put plainly: Western blot of HuR targets. Type of series: cell-based. The procedure: as §5
Series [8] has as its system PARP cleavage, LC3 conversion, and RIP3 activation. Put plainly: Western blot of cell death mechanisms. Type of series: cell-based.
From the text: FIGS. 8A-8C provide the results of Western blot analysis illustrating that KH-3 decreases the protein levels of HuR targets in HCT-116 β/w cells (FIG. 8A) and MDA-MB-231 cells (FIG. 8B) and is involved in cell death mechanisms by inducing PARP cleavage, LC3 conversion, and RIP3 activation (FIG. 8C), according to the working examples.
as §5

The test system of series [9] is doxorubicin-resistant MDA-MB-231 cell line (231-DR). Nature of the series: Cytotoxicity assay, doxorubicin-resistant cells. Type of series: cell-based. Particulars: 231-DR vs MDA-MB-231. The procedure: as §3, §4
Where [10] appears, read: MDA-MB-231, 96 h incubation, WST-8.

For orientation: Ki means a measure of affinity in units of concentration, obtained from inhibition or displacement. For orientation: IC50 means the concentration that gives 50% inhibition. Take `CCOC(=O)/C=C/c1cc2cc(NS(=O)(=O)c3ccccc3)ccc2s1` [KH-1B, (E)-ethyl 3-(5-(phenylsulfonamido)benzo[b]thiophen-2-yl)acrylate]: the Ki in series [1] is above 20 µM. Also, the figures for the half-inhibitory concentration (IC50) with HCT116 β/w, with MIAPaCa-2 and with MDA-MB-231 (setting [10]) were 35.6 µM, 37.6 µM and 41.8 µM, respectively.
The like results for `Cc1ccc(S(=O)(=O)Nc2ccc3sc(/C=C/C(=O)O)cc3c2)cc1` [KH-2A, (E)-3-(5-(4-methylphenylsulfonamido)benzo[b]thiophen-2-yl)acrylic acid] were, in that order, 2.92 µM, above 100 µM, above 100 µM and above 100 µM.
As to `Cc1cc(C)c(S(=O)(=O)Nc2ccc3sc(/C=C/C(=O)NO)cc3c2)c(C)c1` [KH-4], in series [1], the Ki was 1.41 µM. In addition, the IC50 in the series on MDA-MB-231 (MDA-MB-231, 96 h) is 1.04 µM.
Usually Kd stands for the equilibrium constant for the complex coming apart. For “XIAP RNA: Fluorescein labeled 16 nt RNA 5′-UAGUUAUUUUUA UGUC-3′-fluorescein (UAGUUAUUUUUAUGUC; RNA, 3' {Fluorescein}, backbone not given here)”, the dissociation constant Kd in series [2] came to 0.0035 µM.
`CC(=O)O[C@@]12CO[C@@H]1C[C@H](O)[C@@]1(C)C(=O)[C@H](O)C3=C(C)[C@@H](OC(=O)[C@H](O)[C@@H](NC(=O)OC(C)(C)C)c4ccccc4)C[C@@](O)([C@@H](OC(=O)c4ccccc4)[C@H]21)C3(C)C` [docetaxel]: the “IC50 in 231-TR compared to parental cell line” value in [3] is given as “more than 8 fold”. Further, in [4], the “mRNA levels of HuR target Musashi 2 (Msi2)” value is reported as “increased the mRNA levels”.
For the molecule `Cc1cc(C)c(S(=O)(=O)Nc2ccc3sc(/C=C/C(=O)O)cc3c2)c(C)c1` [KH-4A, (E)-3-(5-(2,4,6-trimethylphenylsulfonamido)benzo[b]thiophen-2-yl)acrylic acid], the Ki in series [1] amounted to 2.92 µM. In addition, the half-inhibitory concentration (IC50) with HCT116 β/w, with MIAPaCa-2 and in the series on MDA-MB-231 (setting [10]) was above 100 µM in each case.
`Cc1ccc(S(=O)(=O)Nc2ccc3sc(/C=C/C(=O)NO)cc3c2)cc1` [KH-2]: the inhibition constant (Ki) in [1] stood at 5.55 µM. Further, the IC50 stood at 1.42 µM with HCT116 β/w; 2.33 µM in the series with MIAPaCa-2; 1.46 µM with MDA-MB-231 (MDA-MB-231, 96 h).
Regarding “Bcl-2 RNA: Fluorescein labeled 16 nt RNA 5′-AAAAGAUUUAUUUAUU-3′-fluorescein (RNA, 3' {Fluorescein}, backbone not given here)”, in [2], the equilibrium dissociation constant (Kd) was 0.0063 µM.
Turning to `O=C(/C=C/c1cc2cc(NS(=O)(=O)c3ccccc3)ccc2s1)NO` [KH-1], the Ki in [1] is 9.2 µM. The IC50 in the series with HCT116 β/w was 0.86 µM; in the series on MIAPaCa-2, 1.21 µM; with MDA-MB-231 (MDA-MB-231, 96 h) it was 0.98 µM.
Turning to `O=C(O)/C=C/c1cc2cc(NS(=O)(=O)c3ccccc3)ccc2s1` [KH-1A, (E)-3-(5-(phenylsulfonamido)benzo[b]thiophen-2-yl)acrylic acid], in series [1], the Ki turned out to be 5.82 µM. Moreover, the IC50 in the series on HCT116 β/w, in the series with MIAPaCa-2 and in the series on MDA-MB-231 (setting [10]) was above 100 µM in each case.
On to `CCOC(=O)/C=C/c1cc2cc(NS(=O)(=O)c3ccc(C(C)(C)C)cc3)ccc2s1` [KH-3B, (E)-ethyl 3-(5-(4-(tert-butyl)phenylsulfonamido)benzo[b]thiophen-2-yl)acrylate], for which the inhibition constant Ki in [1] is above 20 µM. Besides, the IC50 stood at 68.2 µM in the series with HCT116 β/w, 45.5 µM with MIAPaCa-2 and 45.6 µM with MDA-MB-231 (setting [10]). The “stability of HuR target mRNAs (Bcl-2, XIAP, Msi1, HuR mRNA)” value in series [5] is given as “not exhibited”. Also, the “protein levels of HuR targets” value in series [6] and in series [7] was “not exhibited” in each case. Also, the “cell death mechanisms (PARP cleavage, LC3 conversion, RIP3 activation)” value in series [8] is given as “not exhibited”.
Turning to “Msi1 RNA: Fluorescein labeled 16 nt RNA 5′-GCUUUUAUUUAUUUUG-3′-fluorescein (RNA, 3' {Fluorescein}, backbone not given here)”, the Kd in [2] turned out to be 0.002 µM.
With `CCOC(=O)/C=C/c1cc2cc(NS(=O)(=O)c3ccc(C)cc3)ccc2s1` [KH-2B, (E)-ethyl 3-(5-(4-methylphenylsulfonamido)benzo[b]thiophen-2-yl)acrylate], the inhibitory constant (Ki) in [1] is above 20 µM. Further, the figures for the half-maximal inhibitory concentration (IC50) with HCT116 β/w, in the series with MIAPaCa-2 and with MDA-MB-231 (setting [10]) were 40.1 µM, 39.5 µM and 43 µM, respectively.
For `CCOC(=O)/C=C/c1cc2cc(NS(=O)(=O)c3c(C)cc(C)cc3C)ccc2s1` [KH-4B, (E)-ethyl 3-(5-(2,4,6-trimethylphenylsulfonamido)benzo[b]thiophen-2-yl)acrylate], in that order: above 20 µM, 91.4 µM, 30.4 µM and above 100 µM.
Consider `COc1cccc2c1C(=O)c1c(O)c3c(c(O)c1C2=O)C[C@@](O)(C(=O)CO)C[C@@H]3O[C@H]1C[C@H](N)[C@H](O)[C@H](C)O1` [doxorubicin], for which the “IC50 in 231-DR compared to parental cell line” value in [9] is given as “about 10 fold”.
As for `CC(C)(C)c1ccc(S(=O)(=O)Nc2ccc3sc(/C=C/C(=O)O)cc3c2)cc1` [KH-3A, (E)-3-(5-(4-(tert-butyl)phenylsulfonamido)benzo[b]thiophen-2-yl)acrylic acid], in series [1], the Ki turned out to be 1.38 µM. For the same molecule, the IC50 in the series on HCT116 β/w, with MIAPaCa-2 and in the series with MDA-MB-231 (setting [10]) was above 100 µM throughout.
